# Data as given in the supplement of paper PMC10307832.
# Experiments:
# Experiment in all cases: relative viability (nuclei count vs DMSO), 5 days (fraction); higher = more cells survive
# LCLC-103H = test system: LCLC-103H
# Summary of the method: (§1)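 Each reported value is a median over duplicate plates. It expresses relative viability: treated-well nuclei count divided by vehicle-well nuclei count. Lung cancer cell lines in 1536-well plates were dosed by pin tool a day after seeding, alone with one drug or with a fixed anchor-drug dose plus five library-drug doses (not always all listed) in √10 steps, and nuclei were counted after 5 days.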
# LXF-289 = test system: LXF-289
# Summary of the method: as §1
# NCI-H1355 = test system: NCI-H1355
# Summary of the method: as §1
# NCI-H1651 = test system: NCI-H1651
# Summary of the method: as §1
# NCI-H1755 = test system: NCI-H1755
# Summary of the method: as §1
# NCI-H1915 = test system: NCI-H1915
# Summary of the method: as §1
# NCI-H2347 = test system: NCI-H2347
# Summary of the method: as §1
# NCI-H3122 = test system: NCI-H3122
# Summary of the method: as §1
# NCI-H322M = test system: NCI-H322M
# Summary of the method: as §1
# NCI-H441 = test system: NCI-H441
# Summary of the method: as §1
# NCI-H460 = test system: NCI-H460
# Summary of the method: as §1
# NCI-H520 = test system: NCI-H520
# Summary of the method: as §1
# NCI-H522 = test system: NCI-H522
# Summary of the method: as §1
# NCI-H596 = test system: NCI-H596
# Summary of the method: as §1
# NCI-H661 = test system: NCI-H661
# Summary of the method: as §1
# NCI-H727 = test system: NCI-H727
# Summary of the method: as §1
# PC-14 = test system: PC-14
# Summary of the method: as §1
# RERF-LC-KJ = test system: RERF-LC-KJ
# Summary of the method: as §1
# SK-MES-1 = test system: SK-MES-1
# Summary of the method: as §1
# SW 900 = test system: SW 900
# Summary of the method: as §1
structure (smiles),measurement,setting,value
Nc1ccn([C@@H]2O[C@H](CO)[C@@H](O)[C@@H]2O)c(=O)n1 [Cytarabine] + Cc1cc(Nc2cc(N3CCN(C)CC3)nc(Sc3ccc(NC(=O)C4CC4)cc3)n2)n[nH]1 [Tozasertib] (partner 0.1 µM),relative viability,LCLC-103H; first compound 0.005 µM,0.568
same,relative viability,LCLC-103H; first compound 0.01581 µM,0.487
same,relative viability,LCLC-103H; first compound 0.05 µM,0.413
same,relative viability,LCLC-103H; first compound 0.1581 µM,0.436
same,relative viability,LCLC-103H; first compound 0.5 µM,0.373
same,relative viability,LXF-289; first compound 0.005 µM,0.244
same,relative viability,LXF-289; first compound 0.01581 µM,0.182
same,relative viability,LXF-289; first compound 0.05 µM,0.13
same,relative viability,LXF-289; first compound 0.1581 µM,0.0999
same,relative viability,LXF-289; first compound 0.5 µM,0.0753
same,relative viability,NCI-H1355; first compound 0.005 µM,0.52
same,relative viability,NCI-H1355; first compound 0.01581 µM,0.524
same,relative viability,NCI-H1355; first compound 0.05 µM,0.484
same,relative viability,NCI-H1355; first compound 0.1581 µM,0.269
same,relative viability,NCI-H1355; first compound 0.5 µM,0.314
same,relative viability,NCI-H1651; first compound 0.005 µM,0.688
same,relative viability,NCI-H1651; first compound 0.01581 µM,0.707
same,relative viability,NCI-H1651; first compound 0.05 µM,0.746
same,relative viability,NCI-H1651; first compound 0.1581 µM,0.577
same,relative viability,NCI-H1651; first compound 0.5 µM,0.206
same,relative viability,NCI-H1755; first compound 0.005 µM,0.492
same,relative viability,NCI-H1755; first compound 0.01581 µM,0.452
same,relative viability,NCI-H1755; first compound 0.05 µM,0.421
same,relative viability,NCI-H1755; first compound 0.1581 µM,0.273
same,relative viability,NCI-H1755; first compound 0.5 µM,0.344
same,relative viability,NCI-H1915; first compound 0.005 µM,0.351
same,relative viability,NCI-H1915; first compound 0.01581 µM,0.472
same,relative viability,NCI-H1915; first compound 0.05 µM,0.401
same,relative viability,NCI-H1915; first compound 0.1581 µM,0.319
same,relative viability,NCI-H1915; first compound 0.5 µM,0.32
same,relative viability,NCI-H2347; first compound 0.005 µM,0.553
same,relative viability,NCI-H2347; first compound 0.01581 µM,0.427
same,relative viability,NCI-H2347; first compound 0.05 µM,0.444
same,relative viability,NCI-H2347; first compound 0.1581 µM,0.52
same,relative viability,NCI-H2347; first compound 0.5 µM,0.402
same,relative viability,NCI-H3122; first compound 0.005 µM,0.389
same,relative viability,NCI-H3122; first compound 0.01581 µM,0.407
same,relative viability,NCI-H3122; first compound 0.05 µM,0.299
same,relative viability,NCI-H3122; first compound 0.1581 µM,0.237
same,relative viability,NCI-H3122; first compound 0.5 µM,0.161
same,relative viability,NCI-H322M; first compound 0.005 µM,0.454
same,relative viability,NCI-H322M; first compound 0.01581 µM,0.416
same,relative viability,NCI-H322M; first compound 0.05 µM,0.432
same,relative viability,NCI-H322M; first compound 0.1581 µM,0.364
same,relative viability,NCI-H322M; first compound 0.5 µM,0.303
same,relative viability,NCI-H441; first compound 0.005 µM,0.557
same,relative viability,NCI-H441; first compound 0.01581 µM,0.637
same,relative viability,NCI-H441; first compound 0.05 µM,0.597
same,relative viability,NCI-H441; first compound 0.1581 µM,0.389
same,relative viability,NCI-H441; first compound 0.5 µM,0.323
same,relative viability,NCI-H460; first compound 0.005 µM,0.438
same,relative viability,NCI-H460; first compound 0.01581 µM,0.362
same,relative viability,NCI-H460; first compound 0.05 µM,0.196
same,relative viability,NCI-H460; first compound 0.1581 µM,0.0434
same,relative viability,NCI-H460; first compound 0.5 µM,0.0361
same,relative viability,NCI-H520; first compound 0.005 µM,0.416
same,relative viability,NCI-H520; first compound 0.01581 µM,0.463
same,relative viability,NCI-H520; first compound 0.05 µM,0.478
same,relative viability,NCI-H520; first compound 0.1581 µM,0.415
same,relative viability,NCI-H520; first compound 0.5 µM,0.494
same,relative viability,NCI-H522; first compound 0.005 µM,0.556
same,relative viability,NCI-H522; first compound 0.01581 µM,0.5
same,relative viability,NCI-H522; first compound 0.05 µM,0.476
same,relative viability,NCI-H522; first compound 0.1581 µM,0.482
same,relative viability,NCI-H522; first compound 0.5 µM,0.572
same,relative viability,NCI-H596; first compound 0.005 µM,1.03
same,relative viability,NCI-H596; first compound 0.01581 µM,0.945
same,relative viability,NCI-H596; first compound 0.05 µM,0.712
same,relative viability,NCI-H596; first compound 0.1581 µM,0.589
same,relative viability,NCI-H596; first compound 0.5 µM,0.469
same,relative viability,NCI-H661; first compound 0.005 µM,0.371
same,relative viability,NCI-H661; first compound 0.01581 µM,0.368
same,relative viability,NCI-H661; first compound 0.05 µM,0.351
same,relative viability,NCI-H661; first compound 0.1581 µM,0.349
same,relative viability,NCI-H661; first compound 0.5 µM,0.364
same,relative viability,NCI-H727; first compound 0.005 µM,0.574
same,relative viability,NCI-H727; first compound 0.01581 µM,0.386
same,relative viability,NCI-H727; first compound 0.05 µM,0.476
same,relative viability,NCI-H727; first compound 0.1581 µM,0.4
same,relative viability,NCI-H727; first compound 0.5 µM,0.463
same,relative viability,PC-14; first compound 0.005 µM,0.404
same,relative viability,PC-14; first compound 0.01581 µM,0.448
same,relative viability,PC-14; first compound 0.05 µM,0.248
same,relative viability,PC-14; first compound 0.1581 µM,0.157
same,relative viability,PC-14; first compound 0.5 µM,0.0594
same,relative viability,RERF-LC-KJ; first compound 0.005 µM,0.385
same,relative viability,RERF-LC-KJ; first compound 0.01581 µM,0.512
same,relative viability,RERF-LC-KJ; first compound 0.05 µM,0.353
same,relative viability,RERF-LC-KJ; first compound 0.1581 µM,0.393
same,relative viability,RERF-LC-KJ; first compound 0.5 µM,0.266
same,relative viability,SK-MES-1; first compound 0.005 µM,0.583
same,relative viability,SK-MES-1; first compound 0.01581 µM,0.483
same,relative viability,SK-MES-1; first compound 0.05 µM,0.28
same,relative viability,SK-MES-1; first compound 0.1581 µM,0.179
same,relative viability,SK-MES-1; first compound 0.5 µM,0.159
same,relative viability,SW 900; first compound 0.005 µM,0.555
same,relative viability,SW 900; first compound 0.01581 µM,0.402
same,relative viability,SW 900; first compound 0.05 µM,0.287
same,relative viability,SW 900; first compound 0.1581 µM,0.233
same,relative viability,SW 900; first compound 0.5 µM,0.134
